# Measurements: patent EP0241134B1, “Pharmaceutical mixture comprising nedocromil or a salt thereof in combination with a bronchodilator” (FISONS plc, priority 1986, dated 1987)
# Tested on: acetyl choline or histamine induced bronchospasm
# Assay: Duration of action: inhibition of acetyl choline or histamine induced bronchospasm by equiactive i.v. doses
# Type: in vivo
# Settings: anaesthetised guinea-pigs
# Source text: We prefer the B₂ selective bronchodilator to be long acting. By the term 'long acting' we mean that the compound has a longer duration of action as a relaxant of bronchial smooth muscle in pharmacological tests than does isoprenaline or orciprenaline. For duration of action studies, a comparison is made of the effect of equiactive i.v. doses as inhibitors of acetyl choline or histamine induced bronchospasm in anaesthetised guinea-pigs. The duration of action of isoprenaline in such a test is relatively short (control response back to normal in 10 to 25 minutes). In the case of a compound with a longer duration of action, the control response would only return to normal over a several-fold longer period of time.
structure (smiles),measurement,value
CC(C)NCC(O)c1ccc(O)c(O)c1 (stereo not shown) [isoprenaline],duration of action (control response back to normal),10 to 25 min
